# Data: ChEMBL document CHEMBL6087395, “NGT: Generative AI with Synthesizability Guarantees Discovers MC2R Inhibitors from a Tera-Scale Virtual Screen” (J Med Chem, 2024)
# Tests used:
# [1] = Antagonist activity at human MC2 receptor expressed in HEK293 cells assessed as inhibition of ACTH-induced cAMP accumulation measured after 70 mins incubation by fluorescence analysis; details: HEK293, 70 min
# Melanocortin receptor 3 = Melanocortin receptor 3 (Homo sapiens, UniProt P41968); assay: Antagonist activity at human MC3 receptor expressed in HEK293 cells assessed as inhibition of ACTH-induced cAMP accumulation measured after 70 mins incubation by fluorescence analysis; type: functional, cell-based
# Chain of Melanocortin receptor 3 (P41968 whole entry): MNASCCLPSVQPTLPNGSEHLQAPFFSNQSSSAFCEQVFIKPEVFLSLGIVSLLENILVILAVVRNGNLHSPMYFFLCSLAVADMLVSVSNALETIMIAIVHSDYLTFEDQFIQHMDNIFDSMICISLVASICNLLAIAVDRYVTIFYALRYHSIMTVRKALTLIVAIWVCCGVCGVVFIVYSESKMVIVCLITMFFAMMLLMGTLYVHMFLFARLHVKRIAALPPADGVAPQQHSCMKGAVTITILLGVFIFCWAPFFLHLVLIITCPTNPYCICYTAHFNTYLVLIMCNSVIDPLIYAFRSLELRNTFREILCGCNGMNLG
# Melanocortin receptor 4 = Melanocortin receptor 4 (Homo sapiens, UniProt P32245); assay: Antagonist activity at human MC4 receptor expressed in HEK293 cells assessed as inhibition of ACTH-induced cAMP accumulation measured after 70 mins incubation by fluorescence analysis; type: functional, cell-based
# Chain of Melanocortin receptor 4 (P32245 whole entry): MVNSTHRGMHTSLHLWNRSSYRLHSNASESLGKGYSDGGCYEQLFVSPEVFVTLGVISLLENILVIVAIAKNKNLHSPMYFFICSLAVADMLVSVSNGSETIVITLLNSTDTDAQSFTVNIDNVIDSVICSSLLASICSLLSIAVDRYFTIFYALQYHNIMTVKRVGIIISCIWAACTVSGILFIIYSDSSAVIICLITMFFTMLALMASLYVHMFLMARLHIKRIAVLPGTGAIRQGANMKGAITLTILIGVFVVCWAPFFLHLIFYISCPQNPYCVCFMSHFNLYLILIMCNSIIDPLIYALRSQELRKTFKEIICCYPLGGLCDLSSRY
# Melanocortin receptor 5 = Melanocortin receptor 5 (Homo sapiens, UniProt P33032); assay: Antagonist activity at human MC5 receptor expressed in HEK293 cells assessed as inhibition of ACTH-induced cAMP accumulation measured after 70 mins incubation by fluorescence analysis; type: functional, cell-based
# Chain of Melanocortin receptor 5 (P33032 whole entry): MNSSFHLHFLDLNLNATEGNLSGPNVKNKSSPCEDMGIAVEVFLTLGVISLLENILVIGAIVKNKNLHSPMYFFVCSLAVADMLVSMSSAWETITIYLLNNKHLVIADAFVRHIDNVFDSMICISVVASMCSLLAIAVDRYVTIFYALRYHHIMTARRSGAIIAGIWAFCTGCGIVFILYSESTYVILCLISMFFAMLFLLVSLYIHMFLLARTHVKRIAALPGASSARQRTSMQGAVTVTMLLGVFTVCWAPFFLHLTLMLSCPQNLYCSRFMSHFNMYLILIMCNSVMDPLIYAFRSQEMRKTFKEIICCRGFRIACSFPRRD
EC50 [1] [µM],EC50 (Melanocortin receptor 3) [µM],EC50 (Melanocortin receptor 4) [µM],EC50 (Melanocortin receptor 5) [µM],SMILES
4.1,37,31,13,COc1ccc(C(CN(C)C)NC(=O)COc2ccc(-c3cccc4c3OCC4)cc2Cl)cc1 (stereo not given)
6.7,94,425,154,CC1CC(N2CCCC2)CN1C(=O)c1cc(O)cc(-c2cc(Cl)ccc2F)c1 (stereo not given)
11,33,32,31,O=C1NCCOc2ccc(CNCC3(c4ccc(C=C5CCSCC5)s4)CCC3)cc21
–,19,–,–,CCCN1CC(NC(=O)[C@@H]2C[C@H]2c2cccc(-c3cc(Cl)ccc3OC)c2Cl)C1
–,156,–,150,COc1cc(C)c(-c2c(C)c(C)c(C(=O)NCC3CCCN3CCCO)c(C)c2C)cc1C (stereo not given)
–,–,–,16,Cc1ccc(-c2cc(Cl)cs2)cc1C1(C(=O)NC2CN(C3CCC3)C2)CC1
7,32,33,72,COCCNC(=O)C(C1CC2(C1)CC21CCC1)N(C(=O)c1cn(C)cn1)C1CCCN(c2cccc(C)c2)C1 (stereo not given)
38,50,36,102,O=C(NCC(F)F)C(C1CC2(C1)CC21CCC1)N(C(=O)c1cc2c(cn1)CCCC2)[C@H]1C[C@@H](N2CCCC2)C1 (stereo not given in full)
–,33,–,–,CCc1ccc(-c2cc(CNC3CCN(c4ccccc4C(N)=O)C3)c(OC)cc2F)s1 (stereo not given)
